{"source": "patent US6465655B1", "about": "“Antibody to and assay for peptide linked-pyridinoline as indicator of bone resorption level” (Serex, Inc., priority 1997, dated 2002)", "system": "Serex 51A93", "test": "ELISA plate inhibition studies of Serex 51A93 by calibrators (Osteomark BCE, Metra free pyridinoline)", "type": "binding", "method": "The immunoreactivities of 51A93 and 1H11 with the calibrators and ELISA plates in the Osteomark kit and Pyrilinks Metra kit were compared. Two studies were carried out using ELISA plate assays.\nIn the first study, BCE calibrators from the Osteomark Kit and free pyridinoline (Pyd) from Metra were tested at different concentrations to see if either of them inhibits 51A93. Abbreviations are BCE, bone collagen equivalents; %Bo, percent bound at 0 concentration of analyte (as analyte in sample binds to antibody, the percent Bo decreases)."}
{"smiles": "N[C@@H](CC[C@@H](O)C[n+]1cc(O)c(C[C@H](N)C(=O)O)c(CC[C@H](N)C(=O)O)c1)C(=O)[O-]", "note": "[Pyd, pyridinoline]", "values": [{"measurement": "% B0", "setting": "Pyd 0.001 mg/ml", "value": 87, "unit": "%"}, {"measurement": "A 450", "setting": "Pyd 0.001 mg/ml", "value": "1,302"}, {"measurement": "% B0", "setting": "Pyd 0.01 mg/ml", "value": 85, "unit": "%"}, {"measurement": "A 450", "setting": "Pyd 0.01 mg/ml", "value": "1,275"}, {"measurement": "% B0", "setting": "Pyd 0.1 mg/ml", "value": 89, "unit": "%"}, {"measurement": "A 450", "setting": "Pyd 0.1 mg/ml", "value": "1,327"}, {"measurement": "% B0", "setting": "Pyd 1 mg/ml", "value": 83, "unit": "%"}, {"measurement": "A 450", "setting": "Pyd 1 mg/ml", "value": "1,249"}, {"measurement": "inhibition of Mab 51A93 by calibrator", "setting": "even at high levels", "value": "slightly inhibited"}]}
